Entries after “also recorded” stand apart in the source; their conditions may differ. Where two headings read alike, the source gives them in different places.
What was measured:
Format in all cases: biochemical
human Lys-plasmin = target: T1, human Lys-plasmin (Homo sapiens, UniProt P00747); test: Direct inhibition of human Lys-plasmin, chromogenic substrate (Spectrozyme PL) hydrolysis assay; conditions: for diminished potency relative to 32: 13-atom and 14-atom linkers vs 12-atom linker of 32; for IC50: human plasmin 20 nM, 50 mM Tris-HCl pH 7.4, 150 mM NaCl, 37 °C, Spectrozyme PL; for inhibition at 400 µM: 400 μM inhibitor, n ≥ 2, read-out: plasmin inhibition in initial screening; for decrease in inhibition potency relative to 31 and 32, respectively: tetrasulfated flavonoid replaced by para-sulfated quinazolinone
T1 construct: purchased Haematologic Technologies (Essex Junction, VT, USA)
Procedure: Important to emphasize here that the potency of NSGM-based inhibitors was evaluated by measuring their IC50's (X-axis), whereas the efficacy was assessed by measuring the overall change in residual plasmin activity (%) (ΔY = YM − Y0) (Y-axis).
Direct inhibition of human Lys-plasmin was measured using a chromogenic substrate hydrolysis assay on a microplate reader (FlexStation III, Molecular Devices, Sunnyvale, CA, USA), as reported earlier. Briefly, to each well of a 96-well microplate containing 85 µL of 50 mM Tris-HCl buffer, pH 7.4, containing 150 mM NaCl, 0.1% PEG8000, and 0.02% Tween80 at 37 °C was added 5 µL potential NSGM-based inhibitor (20–100 mM aqueous solution) (or vehicle alone) and 5 µL enzyme. The final concentration of the enzyme was 20 nM. After 5 min incubation, 5 µL of 1 mM Spectrozyme PL was rapidly added and the residual enzyme activity was measured from the initial rate of increase in A405. Relative residual enzyme activity (Y) as a function of the concentration of sulfated molecule was fitted using logistic equation 1 to obtain the potency (IC50), efficacy (ΔY) and Hill slope (HS) of inhibition. In this equation, YM and Y0 are the maximal and minimal values of Y: (1) Y = Y0+YM−Y0/1+10^(log[Inhibitor]0 − logIC50) ×HS […]
In this equation, Y is the ratio of residual plasmin activity in the presence of inhibitor to that in its absence (fractional residual activity). YM and Y0 are the maximum and minimum possible values of the fractional residual proteinase activity. The difference between these two values is used to evaluate the inhibitor’s efficacy to reduce the residual enzyme activity under the assay condition.
Direct inhibition of human plasmin by sulfated small molecules. Direct inhibition of plasmin was measured using a chromogenic substrate hydrolysis assay on a microplate reader (FlexStation III, Molecular Devices), as reported earlier. Briefly, to each well of a 96-well microplate containing […]
Tween80 at 37 °C was added 5 µL potential inhibitor (or vehicle alone) and 5 µL enzyme. The final concentration of the enzyme was 20 nM. After 5 min incubation, 5 µL of 1 mM Spectrozyme PL was rapidly added and the residual enzyme activity was measured from the initial rate of increase in A405.
Relative residual enzyme activity (Y, activity in the presence of inhibitor to that in its absence) as a function of the concentration of SPGG derivative was fitted using logistic Equation (1) to obtain the potency (IC50), efficacy (ΔY) and Hill slope (HS) of inhibition. In this equation, YM and Y0 are the maximal and minimal values of Y.

thrombin = thrombin (Homo sapiens, UniProt P00734); test: Direct inhibition of thrombin, chromogenic substrate (Spectrozyme TH) hydrolysis assay; conditions: pH 7.4, 37 °C; read-out: IC50 against thrombin
Procedure: (§1) The rationale behind targeting an allosteric site on plasmin was to achieve inhibition specificity over the closely related serine proteases. In contrast to active sites, allosteric sites are not as highly conserved and therefore present a powerful opportunity for discovering a selective modulator of enzyme function. […] Using appropriate small peptide-based chromogenic substrates, the fractional residual thrombin and factor Xa activities were measured under the physiological condition of pH 7.4 and 37 °C.
(§2) Briefly, to each well of a 96-well microplate containing 185 μL of 20–50 mM Tris-HCl buffer, pH 7.4, containing 100–150 mM NaCl, 0.1% PEG8000 and 0.02% Tween80 at either 25 °C (thrombin) or 37 °C (factor Xa) was added 5 μL of 10–20 mM inhibitor (or vehicle) and 5 μL of the enzyme. The final concentrations of the enzymes were 6 nM (thrombin) and 1.09 nM (factor Xa). After 10 min incubation, 5 μL 1.0 mM Spectrozyme TH or 2.5 mM Spectrozyme FXa, was rapidly added and the residual enzyme activity was measured from the initial rate of increase in A405. Relative residual enzyme activity (Y, activity in the presence of inhibitor to that in its absence) as a function of the concentration of inhibitor was measured.

factor Xa = factor Xa (Homo sapiens, UniProt P00742); test: Direct inhibition of factor Xa, chromogenic substrate (Spectrozyme FXa) hydrolysis assay; conditions: for IC50: pH 7.4, 37 °C, read-out: IC50 against factor Xa
Procedure: as §1, §2

human plasmin = target: T2, human plasmin (Homo sapiens, UniProt P00747); test: Michaelis-Menten kinetics of Spectrozyme PL hydrolysis by human plasmin in presence of inhibitor
T2 construct: purchased Haematologic Technologies (Essex Junction, VT, USA)
Procedure: The initial rate of Spectrozyme PL hydrolysis by human plasmin (20 nM) was monitored from the linear increase in absorbance at 405 nm corresponding to less than 10% consumption of the substrate. […] The data were fitted by Michaelis-Menten Equation (2) to determine KM,app and VMAX: (2) V= VMAX [S]/KM+ [S] […]
Michaelis-Menten kinetics of Spectrozyme PL hydrolysis by plasmin in the presence of […]
The initial rate of Spectrozyme PL hydrolysis by human plasmin (20 nM) was monitored from the linear increase in absorbance at 405 nm corresponding to less than 10% consumption of the substrate. The initial rate was measured as a function of various concentrations of the substrate (0–400 μM) […]
50 mM Tris-HCl buffer, pH 7.4, 150 mM NaCl at 37 °C. The data were fitted by Michaelis-Menten Equation (2) to determine KM,app and VMAX. […]

[1] = pH 7.4, read-out: ΔY% (efficacy, YM − Y0), logistic fit, pH 7.4, 37 °C
[2] = pH 7.4, logistic fit, pH 7.4, 37 °C, read-out: ΔY% (efficacy, YM − Y0)
[3] = logistic fit, pH 7.4, 37 °C, read-out: ΔY% (efficacy, YM − Y0)

T1 sequence (P00747 581-810 limits assumed): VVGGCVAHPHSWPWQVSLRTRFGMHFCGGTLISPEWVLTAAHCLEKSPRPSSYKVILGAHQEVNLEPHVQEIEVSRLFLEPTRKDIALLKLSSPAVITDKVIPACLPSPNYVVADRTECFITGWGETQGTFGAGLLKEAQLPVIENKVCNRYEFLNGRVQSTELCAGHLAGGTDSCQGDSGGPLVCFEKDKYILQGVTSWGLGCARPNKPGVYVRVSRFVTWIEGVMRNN
T1 sequence (P00747 97-580 partner limits assumed): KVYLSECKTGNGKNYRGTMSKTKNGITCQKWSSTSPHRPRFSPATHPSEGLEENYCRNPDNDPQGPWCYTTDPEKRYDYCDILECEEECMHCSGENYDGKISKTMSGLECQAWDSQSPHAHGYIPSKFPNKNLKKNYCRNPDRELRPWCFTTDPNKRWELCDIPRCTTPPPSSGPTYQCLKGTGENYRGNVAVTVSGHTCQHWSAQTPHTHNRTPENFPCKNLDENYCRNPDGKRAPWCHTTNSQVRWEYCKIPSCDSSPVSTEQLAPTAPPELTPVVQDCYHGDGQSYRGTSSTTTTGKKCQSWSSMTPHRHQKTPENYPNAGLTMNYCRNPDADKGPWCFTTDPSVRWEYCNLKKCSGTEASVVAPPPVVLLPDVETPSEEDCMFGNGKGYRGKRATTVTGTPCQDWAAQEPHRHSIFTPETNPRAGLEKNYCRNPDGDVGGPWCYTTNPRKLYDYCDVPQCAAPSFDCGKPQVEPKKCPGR
T2 sequence (P00747 581-810 limits assumed): as the sequence (P00747 581-810 limits assumed) above
T2 sequence (P00747 97-580 partner limits assumed): as the sequence (P00747 97-580 partner limits assumed) above
Chain of factor Xa (P00742 235-488 limits assumed): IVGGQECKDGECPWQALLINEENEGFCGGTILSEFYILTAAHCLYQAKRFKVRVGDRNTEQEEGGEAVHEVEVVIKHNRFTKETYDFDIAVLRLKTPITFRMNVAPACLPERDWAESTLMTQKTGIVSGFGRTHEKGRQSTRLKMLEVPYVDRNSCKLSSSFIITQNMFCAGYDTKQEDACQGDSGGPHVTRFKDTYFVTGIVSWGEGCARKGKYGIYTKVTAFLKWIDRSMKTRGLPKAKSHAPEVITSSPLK
Chain of factor Xa (P00742 41-179 partner limits assumed): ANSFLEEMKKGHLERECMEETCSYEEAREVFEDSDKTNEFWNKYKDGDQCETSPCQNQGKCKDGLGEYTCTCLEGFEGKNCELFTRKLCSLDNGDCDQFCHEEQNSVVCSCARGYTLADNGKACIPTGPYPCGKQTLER

Structure (SMILES)	IC50 (human Lys-plasmin) [µM]	HS (Hill slope) (human Lys-plasmin; logistic fit, pH 7.4, 37 °C)	Emax (human Lys-plasmin; [3]) [%]	other results
O=c1c(OS(=O)(=O)O)c(-c2ccc(OS(=O)(=O)O)c(OS(=O)(=O)O)c2)oc2cc(OS(=O)(=O)O)cc(OCc3cn(CCCCCCCCCn4c(-c5ccc(OS(=O)(=O)O)cc5)nc5ccccc5c4=O)nn3)c12 [compound 33]	128 ± 8	1.8 ± 0.4		diminished potency relative to 32 (human Lys-plasmin): ~ 3 fold; Emax (human Lys-plasmin; [1]): 89 ± 7%
O=c1c2ccccc2nc(-c2ccc(OS(=O)(=O)O)cc2)n1Cc1cn(CCn2cc(Cn3c(-c4ccc(OS(=O)(=O)O)cc4)nc4ccccc4c3=O)nn2)nn1 [compound 41]	125 ± 9	4.0 ± 1.8		ΔY% (efficacy, YM − Y0) (human Lys-plasmin; logistic fit, pH 7.4, 37 °C): 54 ± 5%; Emax (human Lys-plasmin; [2]): 54%
O=c1c(OS(=O)(=O)O)c(-c2ccc(OS(=O)(=O)O)c(OS(=O)(=O)O)c2)oc2cc(OS(=O)(=O)O)cc(OCc3cn(CCCCCCCn4c(-c5ccc(OS(=O)(=O)O)cc5)nc5ccccc5c4=O)nn3)c12 [compound 31, 3-(8-(4-((2-(3,4-O,O-Disulfonato-phenyl)-3,7-O,O-disulfonato-4-oxo-4H-chromen-5-yloxy)methyl)-1H-1,2,3-triazol-1-yl)heptyl)-2-(4-O-sulfonato-phenyl)quinazolin-4(3H)-one]	56 ± 2	3.2 ± 0.8		ΔY% (efficacy, YM − Y0) (human Lys-plasmin; logistic fit, pH 7.4, 37 °C): 87 ± 4%; Emax (human Lys-plasmin; [1]): 87%; IC50 (thrombin): > 500 µM; selectivity index for plasmin over factor Xa (factor Xa): about 5 fold; IC50 (factor Xa): > 250 µM
O=S(=O)(O)OC[C@H]1O[C@@](COS(=O)(=O)O)(O[C@H]2O[C@H](COS(=O)(=O)O)[C@@H](OS(=O)(=O)O)[C@H](OS(=O)(=O)O)[C@H]2OS(=O)(=O)O)[C@@H](OS(=O)(=O)O)[C@@H]1OS(=O)(=O)O [compound 17, sucrose octasulfate, reference compound]				inhibition at 400 µM (human Lys-plasmin; pH 7.4, 37 °C): ≤ 70%
O=c1c2ccccc2nc(-c2ccc(OS(=O)(=O)O)cc2)n1CCCCCCCCn1cc(Cn2c(-c3ccc(OS(=O)(=O)O)cc3)nc3ccccc3c2=O)nn1 [compound 43]	183 ± 43	1.0 ± 0.3	94 ± 21	decrease in inhibition potency relative to 31 and 32, respectively (human Lys-plasmin): 3–4 fold
O=c1c2ccccc2nc(-c2ccc(OS(=O)(=O)O)cc2)n1CCCCCCCn1cc(Cn2c(-c3ccc(OS(=O)(=O)O)cc3)nc3ccccc3c2=O)nn1 [compound 42]	161 ± 24	1.0 ± 0.2	92 ± 4	decrease in inhibition potency relative to 31 and 32, respectively (human Lys-plasmin): 3–4 fold
O=c1c(OS(=O)(=O)O)c(-c2ccc(OS(=O)(=O)O)c(OS(=O)(=O)O)c2)oc2cc(OS(=O)(=O)O)cc(OCc3cn(CCCCCCCCn4c(-c5ccc(OS(=O)(=O)O)cc5)nc5ccccc5c4=O)nn3)c12 [compound 32, 3-(8-(4-((2-(3,4-O,O-Disulfonato-phenyl)-3,7-O,O-disulfonato-4-oxo-4H-chromen-5-yloxy)methyl)-1H-1,2,3-triazol-1-yl)octyl)-2-(4-O-sulfonato-phenyl)quinazolin-4(3H)-one]	45 ± 2	2.3 ± 0.7		mechanism of plasmin inhibition (human plasmin; Michaelis-Menten kinetics, pH 7.4, 37 °C): noncompetitive inhibition; also recorded: allosteric inhibitor; decrease in VMAX (human plasmin; inhibitor 0 to 250 μM): 5.5 fold; VMAX of Spectrozyme PL hydrolysis (human plasmin; inhibitor 1 μM): 65.8 ± 2.1 mAU/min; VMAX of Spectrozyme PL hydrolysis (human plasmin; inhibitor 10 μM): 56.4 ± 2.3 mAU/min; VMAX of Spectrozyme PL hydrolysis (human plasmin; inhibitor 50 μM): 41.4 ± 1.6 mAU/min; VMAX of Spectrozyme PL hydrolysis (human plasmin; inhibitor 150 μM): 20.7 ± 1.1 mAU/min; VMAX of Spectrozyme PL hydrolysis (human plasmin; inhibitor 250 μM): 12.5 ± 1.3 mAU/min; Emax (human Lys-plasmin; [1]): 105%; IC50 (thrombin): > 500 µM; selectivity index for plasmin over factor Xa (factor Xa): about 5 fold; IC50 (factor Xa): > 250 µM
O=c1c(OS(=O)(=O)O)c(-c2ccc(OS(=O)(=O)O)c(OS(=O)(=O)O)c2)oc2cc(OS(=O)(=O)O)cc(OCc3cn(CCCCCCCCCCn4c(-c5ccc(OS(=O)(=O)O)cc5)nc5ccccc5c4=O)nn3)c12 [compound 34]	130 ± 6	3.9 ± 1.0		diminished potency relative to 32 (human Lys-plasmin): ~ 3 fold; Emax (human Lys-plasmin; [1]): 83 ± 5%

Continued, in another order:

IC50 (human Lys-plasmin) [µM]	HS (Hill slope) (human Lys-plasmin; logistic fit, pH 7.4, 37 °C)	Emax (human Lys-plasmin; [3]) [%]	Structure (SMILES)	other results
111 ± 7	2.4 ± 0.4	95 ± 2	O=c1c2ccccc2nc(-c2ccc(OS(=O)(=O)O)cc2)n1CCCCCCCCCCCn1cc(Cn2c(-c3ccc(OS(=O)(=O)O)cc3)nc3ccccc3c2=O)nn1 [compound 46]	
137 ± 11	1.0 ± 0.2	102 ± 9	O=c1c2ccccc2nc(-c2ccc(OS(=O)(=O)O)cc2)n1CCCCCCCCCn1cc(Cn2c(-c3ccc(OS(=O)(=O)O)cc3)nc3ccccc3c2=O)nn1 [compound 44]	
185 ± 68	1.4 ± 0.2		O=c1c(OS(=O)(=O)O)c(-c2ccc(OS(=O)(=O)O)c(OS(=O)(=O)O)c2)oc2cc(OS(=O)(=O)O)cc(OCCOc3cc(OS(=O)(=O)O)cc4oc(-c5ccc(OS(=O)(=O)O)c(OS(=O)(=O)O)c5)c(OS(=O)(=O)O)c(=O)c34)c12 [compound 50]	loss in potency relative to 4-atom linker flavonoid homodimers (52, 54) (human Lys-plasmin): 2 fold; inhibition at 400 µM (human Lys-plasmin; pH 7.4, 37 °C): > 90%; ΔY% (efficacy, YM − Y0) (human Lys-plasmin; logistic fit, pH 7.4, 37 °C): 38 ± 15%; Emax (human Lys-plasmin; [2]): 38%
98 ± 9	1.7 ± 0.6	94 ± 6	O=c1c2ccccc2nc(-c2ccc(OS(=O)(=O)O)cc2)n1CCCCCCCCCCn1cc(Cn2c(-c3ccc(OS(=O)(=O)O)cc3)nc3ccccc3c2=O)nn1 [compound 45]	
209 ± 25	0.6 ± 0.1		O=c1c(OS(=O)(=O)O)c(-c2ccc(OS(=O)(=O)O)c(OS(=O)(=O)O)c2)oc2cc(OS(=O)(=O)O)cc(OCCCCCOc3cc(OS(=O)(=O)O)cc4oc(-c5ccc(OS(=O)(=O)O)c(OS(=O)(=O)O)c5)c(OS(=O)(=O)O)c(=O)c34)c12 [compound 53]	loss in potency relative to 4-atom linker flavonoid homodimers (52, 54) (human Lys-plasmin): 3 fold; inhibition at 400 µM (human Lys-plasmin; pH 7.4, 37 °C): > 90%; Emax (human Lys-plasmin; [2]): 105 ± 8%
~2830			O=c1c(OS(=O)(=O)O)c(-c2ccc(OS(=O)(=O)O)c(OS(=O)(=O)O)c2)oc2cc(OS(=O)(=O)O)cc(OCCCOc3cc(OS(=O)(=O)O)cc4oc(-c5ccc(OS(=O)(=O)O)c(OS(=O)(=O)O)c5)c(OS(=O)(=O)O)c(=O)c34)c12 [compound 51]	loss in potency relative to 4-atom linker flavonoid homodimers (52, 54) (human Lys-plasmin): 37 fold
89 ± 7	1.9 ± 0.6	98 ± 7	O=c1c2ccccc2nc(-c2ccc(OS(=O)(=O)O)cc2)n1CCCCCCCCCCCCn1cc(Cn2c(-c3ccc(OS(=O)(=O)O)cc3)nc3ccccc3c2=O)nn1 [compound 47]	
